# According to patent US12336977B2, “Nitenin analogue compounds and their use in the treatment of chronic and acute pain” (SEA4US-BIOTECNOLOGIA E RECURSOS MARINHOS, LDA., priority 2019, dated 2025):
# How the values were obtained:
# [1] = tested on: voltage-activated Na+ currents of sdDRGns; assay: whole-cell voltage-clamp of voltage activated Na+ currents in sdDRGns; type: cell-based, rat; settings: 0.1 μg/ml, 0.29 μM (FIG. 1.b)
# Method: FIG. 1 illustrates the effect of nitenin (0.1 μg/ml) on voltage activated currents recorded from small diameter Dorsal Root Ganglia neurons (sdDRGns) • a) In sdDRGns, voltage-activated outward potassium (K^+) currents were evoked by a depolarizing step to +20 mV (holding potential of −70 mV) preceded by a hyperpolarizing pre-pulse to −120 mV. […] Typical voltage activated K^+ current traces recorded before and in the presence of nitenin (0.1 μg/ml); lower trace corresponding to the current subtraction, fit with a single-exponential function (time constant τ˜150 ms). ii.
# For the electrophysiological recordings of the ex vivo material, voltage-clamp recordings were performed on neurons isolated from rat DRGs (and TGs). Recordings were performed from the soma that often contained the proximal fraction of axon, 1 hour after the end of the cell isolation process (includes enzymatic and mechanical treatment).
# hKv1.6 = molecular target: T1, hKv1.6 (Homo sapiens, UniProt P17658); assay: voltage-clamp of K+ currents in CHO-K1 cells expressing hKv1.6; type: cell-based
# T1 construct: expressed in transfected cells; host or cells: CHO-K1
# Source text: As measure of Ifast, peak current was used, whereas, as a measure of Islow, the current value was obtained at the end of the command pulse (see FIG. 1). Values are expressed as mean±S.E.M. For Islow, a dual phase relationship can be observed. […] Kv1.3 channel is the most sensitive channel (around 6-fold more sensitive in comparison to the “next most sensitive one”, the Kv1.2) Kv1.2, Kv1.1 and Kv1.6 show similar, intermediate sensitivities to nitenin. In opposition, Kv1.4 is the less sensitive (˜31 times less sensitive).
# Additionally, drug sensitivity to different voltage-activated channels was assessed by studying the drug effect on currents recorded from chinese hamster ovary (CHO) cells stably transfected with different human Kv channel subunits (Kv1.1, Kv1.2, Kv1.3, Kv1.4 and Kv1.6).
# The higher sensitivity of nitenin to Islow (rather than Ifast) and the nature of the nitenin sensitive current (see nitenin sensitive current in FIG. 1.b) urged to understand which K^+ channel(s) do underline Islow. By considering which Kv channel subunits are known to be expressed in DRG, and the biophysical nature of the nitenin-sensitive current, nitenin was tested on whole-cell currents recorded from CHO cells expressing hKv1.1, hKv1.2, hKv1.3, hKv1.4 and hKv1.6. […] Current inhibition was measured at the end of the 1000 ms pulse.
# [2] = tested on: slow currents from large diameter DRG neurons; assay: slow currents of large diameter DRG neurons; type: cell-based, rat; settings: relative to sdDRGNs
# Source text: The K^+ currents affected by the identified compounds, recorded from sdDRGNs (and sdTGNs) by whole-cell voltage-clamp techniques, were object of intensive research by the applicant in the area of pain neurophysiology. The use of rat pain models was fundamental to perform previous target validation, i.e., to determine the K^+ current component differentially expressed in pain conditions. […] The nature of the recorded modulatory effect on the currents was studied by monitoring several biophysical parameters, such as voltage dependencies of activation and inactivation and kinetics. The specificity of the bioactivity was carried out by comparing the pharmacological effect on currents recorded from the sdDRGNs with those in other types of dorsal root ganglia (medium and large diameter DGRs).
# Lastly, regarding specificity, it is important to note that the slow currents obtained from large diameter DRG neurons are around 10 times less sensitive to nitenin.
# [3] = tested on: CFA rats (knee administrations of Complete Freund's Adjuvant on Wistar rats); assay: inflammatory pain rat model CFA, von Frey filaments; type: in vivo
# Method: […]
# For efficacy studies, nociception was assessed in all animals from all pain models by regular behavioural monitoring, by quantifying the sensitivity to mechanical stimuli with Von Frey filaments, and consequently reflecting hyperalgesia when hypersensitive. […] Intraperitoneal administration was tested in CFA rats (23 days after CFA injection), with 10 times the nitenin quantity administered by I.V. injections. […] Oral administration of nitenin through stomach gavages (endogastric), with 100 times the quantity administered by I.V. injections, was tested in CCI rats (31 days after surgery). […]
# T1 sequence (P17658 whole entry): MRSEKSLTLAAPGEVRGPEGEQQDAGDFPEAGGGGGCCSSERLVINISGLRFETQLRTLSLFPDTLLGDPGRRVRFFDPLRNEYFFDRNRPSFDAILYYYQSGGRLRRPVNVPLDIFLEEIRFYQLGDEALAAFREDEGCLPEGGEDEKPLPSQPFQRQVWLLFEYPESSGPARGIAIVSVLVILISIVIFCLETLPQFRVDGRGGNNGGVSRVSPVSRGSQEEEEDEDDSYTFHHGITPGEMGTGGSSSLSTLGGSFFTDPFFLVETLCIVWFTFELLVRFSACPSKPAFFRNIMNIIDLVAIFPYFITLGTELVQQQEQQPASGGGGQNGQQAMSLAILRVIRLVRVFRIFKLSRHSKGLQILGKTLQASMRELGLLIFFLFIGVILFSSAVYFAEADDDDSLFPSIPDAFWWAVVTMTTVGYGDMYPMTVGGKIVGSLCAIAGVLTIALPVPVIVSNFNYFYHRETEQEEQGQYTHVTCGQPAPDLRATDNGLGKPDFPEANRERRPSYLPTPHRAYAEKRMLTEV
smiles,measurement,setting,value
C/C(=C\C1C/C(=C/CCc2ccoc2)C(=O)O1)CCCc1ccoc1 (stereo not drawn) [nitenin],effect on voltage activated Na+ currents,[1],absence of effect
same,effect on voltage activated Na+ currents,[1]; listed as Nitenin,not being able to induce relevant changes
same,lower sensitivity of hKv1.6 relative to Kv1.3,hKv1.6,~6 ×
same,lower sensitivity of slow currents of large diameter DRG neurons,[2],around 10 times
same,sensitivity to mechanical stimuli (von Frey),"[3]; I.V. 1 μg/mL of blood, 3, 18 and 23 days after CFA",noticeable decrease of sensitivity to mechanical stimuli
same,mitigation effect of pain (score values),"[3]; intraperitoneal, 10 times the I.V. quantity, 23 days after CFA injection",clear mitigation effect of pain with score values reaching control levels
